Test results from patent US10655099B2, “Animal protein-free media for cultivation of cells” (Baxalta Incorporated, priority 2004, dated 2020).

Key:
GD8/6 cells = details: 0-18 mg/L (as HCl salt) in BAV-medium with 0.25% soy hydrolysate vs unsupplemented 0.25% or 0.4% soy hydrolysate
Procedure: Small scale experiments with GD8/6 cells in suspension culture were carried in Techne spinner flasks at 200 ml working volume in batch refeed mode at 37° C., without pH and pO2 control.
The activity of Factor VIII (FVIII) (cf. FIGS. 1 to 5 and 9) was measured by a chromogenic assay (Chromogenic, Sweden).
The cell specific productivity is defined as the specific amount of produced protein (U or μg) per number of cells per day (cf. FIGS. 7 and 9) or as the specific amount of produced protein (U) produced per amount of D-glucose consumed by the cells (cf. FIG. 8).

[1] = tested on: GD8/6 cells (CHO-cells stably expressing Factor VIII); assay: Volumetric FVIII productivity of GD8/6 cells in chemostat culture (chromogenic FVIII assay); format: cell-based
Procedure: (§1) Cell cultures of recombinant mammalian cells (e.g. CHO-cells stably expressing Factor VIII=GD8/6-cells) were grown in suspension in a chemostat culture in 10 l bioreactors. The culture conditions of 37° C., oxygen saturation 20% and pH 7.0 to 7.1 were kept constant. The cultures were supplied with a constant feed of BAV-medium as defined in Example 1 additionally supplemented with soy hydrolysates in the range of […] and/or addition of putrescine.2HCl in the range of 0-1 mg/L (cf. FIG. 1-5).
The volumetric productivity is calculated from the amount of activity units or antigen titers yielded per liter reactor volume per day (U/L/d or mg/L/d) in the respective production systems.

[2] = tested on: GD8/6 cells (CHO-cells stably expressing Factor VIII)
Procedure: as §1
Cell counts from suspension cells or immobilized cells were determined either by counting with a CASY® cell counter as described by Schärfe et al., (Biotechnologie in LaborPraxis 10: 1096-1103 (1988)) or by citric acid extraction and fluorescent staining of the nuclei followed by counting with a NucleoCounter® (Chemometec, DK). The specific growth rate (μ) is calculated from the increase of the cell densities (X1) and/or the dilution rate (D) of the steady state of chemostat cultures of suspensions cells over a certain time interval (t): μ=D+In (Xt I X0)/t

Recombinant BHK cells = details: 0.25% (w/v) soy hydrolysate + 1.8 mg/L putrescine.2HCl vs 0.25% soy peptone alone; 3 days; EPO activity per glucose consumption
Procedure: Recombinant BHK cells were grown to confluence in 5% (v/v) fetal calf serum containing medium. The cells were washed with protein-free medium and incubated for 3 days in BAV medium supplemented with 0.25% (w/v) soy hydrolysate or 0.25% (w/v) soy hydrolysate+1.8 mg/L putrescine.2HCl (FIG. 8).

[3] = 0.25% (w/v) soy hydrolysate + 1 mg/L putrescine.2HCl
[4] = 0.25% (w/v) soy hydrolysate + 1 mg/L putrescine.2HCl vs 0.25% soy hydrolysate alone

SMILES | cell specific productivity (FVIII), change (GD8/6 cells) | variation of volumetric FVIII-productivity between soy hydrolysate lots [1, 3] | volumetric and cell specific FVIII-productivity, change [1, 4] | volumetric productivity of FVIII, effect of addition ([1]; addition to BAV-medium with 0.25% (w/v) soy hydrolysate, due to increased cell specific FVIII productivity) | variation of specific growth rates between soy hydrolysate lots [2, 3] | specific growth rate, change [2, 4] | increase in EPO productivity (Recombinant BHK cells)
NCCC[C@H](N)C(=O)O [ornithine] | significant increase |  |  |  |  |  | 
NCCCCN [putrescine] | significant increase | only minor variations | increases | over proportional increased | only minor variations | increases | 16%
NCCCNCCCCNCCCN [spermine] | significant increase |  |  |  |  |  | 
